Source: the NIST ThermoML archive (doi:10.1021/je500917k)
Numbers after ± are expanded uncertainties.

What was measured:
[1] = xn = mol fraction of the nth substance listed; details: 100 kPa, Liquid; for speed of sound: Frequency=2 MHz
[2] = 100 kPa, Liquid; for speed of sound: Frequency=2 MHz

CCN1CCCC1=O [1-ethyl-2-pyrrolidinone] + CCNCCO
[1], x1 = 1
Details	mass density [kg/m3]	speed of sound [m/s]	viscosity [mPa·s]
293.15 K	997.71 ± 0.94	1512.1 ± 3.4	2.117 ± 0.053
303.15 K	989.14 ± 0.94	1474.2 ± 3.4	1.771 ± 0.045
313.15 K	980.56 ± 0.94	1436 ± 3.4	1.518 ± 0.039
323.15 K	971.96 ± 0.94	1398.5 ± 3.4	1.299 ± 0.034

CCNCCO [2-(ethylamino)ethanol]
[2]
Details	mass density [kg/m3]	speed of sound [m/s]	viscosity [mPa·s]
293.15 K	917.79 ± 0.55	1442.4 ± 2.9	15.28 ± 0.28
303.15 K	909.82 ± 0.56	1408.3 ± 2.9	9.59 ± 0.19
313.15 K	901.79 ± 0.57	1374.5 ± 2.9	6.406 ± 0.13
323.15 K	893.68 ± 0.57	1340.9 ± 2.9	4.527 ± 0.1

CNCCO [2-(methylamino)ethanol] + CCN1CCCC1=O
[1], x2 = 0
Details	mass density [kg/m3]	speed of sound [m/s]	viscosity [mPa·s]
293.15 K	941.79 ± 0.54	1486.5 ± 2.9	13.42 ± 0.25
303.15 K	934.02 ± 0.54	1454.6 ± 2.9	8.58 ± 0.17
313.15 K	926.18 ± 0.55	1422.7 ± 2.9	5.869 ± 0.12
323.15 K	918.25 ± 0.55	1390.9 ± 2.9	4.096 ± 0.092

CNCCO [2-(methylamino)ethanol]
[2]
Details	mass density [kg/m3]	speed of sound [m/s]	viscosity [mPa·s]
293.15 K	941.79 ± 0.54	1486.5 ± 2.9	13.42 ± 0.25
303.15 K	934.02 ± 0.54	1454.6 ± 2.9	8.58 ± 0.17
313.15 K	926.18 ± 0.55	1422.7 ± 2.9	5.869 ± 0.12
323.15 K	918.25 ± 0.55	1390.9 ± 2.9	4.096 ± 0.092

CCN1CCCC1=O [1-ethyl-2-pyrrolidinone]
[2]
Details	mass density [kg/m3]	speed of sound [m/s]	viscosity [mPa·s]
293.15 K	997.71 ± 0.94	1512.1 ± 3.4	2.117 ± 0.053
303.15 K	989.14 ± 0.94	1474.2 ± 3.4	1.771 ± 0.045
313.15 K	980.56 ± 0.94	1436 ± 3.4	1.518 ± 0.039
323.15 K	971.96 ± 0.94	1398.5 ± 3.4	1.299 ± 0.034
